{
  "source": "paper PMC2275798",
  "about": "(The Journal of biological chemistry, 2007)",
  "molecules": {"B1": {"name": "LSECtin CRD (protein)", "chain": "FEGSCYFFSVPKTTWAAAQDHCADASAHLVIVGGLDEQGFLTRNTRGRGYWLGLRAVRHLGKVQGYQWVDGVSLSFSHWNQGEPNDAWGRENCVMMLHTGLWNDAPCDSEKDGWIC"}},
  "key": {"[1]": {"molecular_target": "T1, LSECtin carbohydrate-recognition domain (CRD) (Homo sapiens, UniProt Q6UXB4)", "T1 sequence (Q6UXB4 160-293)": "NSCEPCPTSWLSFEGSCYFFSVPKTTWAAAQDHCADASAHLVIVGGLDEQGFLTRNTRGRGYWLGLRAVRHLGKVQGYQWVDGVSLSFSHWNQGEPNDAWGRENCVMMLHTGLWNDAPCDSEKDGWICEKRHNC", "format": "binding"}, "[2]": {"molecular_target": "T1, LSECtin carbohydrate-recognition domain (CRD)", "format": "binding", "remark": "listed apart in the source"}, "[3]": {"molecular_target": "T2, Ebola virus surface glycoprotein GP1 (Fc fusion) GP1 (Zaire ebolavirus, UniProt Q05320)", "T2 chain": "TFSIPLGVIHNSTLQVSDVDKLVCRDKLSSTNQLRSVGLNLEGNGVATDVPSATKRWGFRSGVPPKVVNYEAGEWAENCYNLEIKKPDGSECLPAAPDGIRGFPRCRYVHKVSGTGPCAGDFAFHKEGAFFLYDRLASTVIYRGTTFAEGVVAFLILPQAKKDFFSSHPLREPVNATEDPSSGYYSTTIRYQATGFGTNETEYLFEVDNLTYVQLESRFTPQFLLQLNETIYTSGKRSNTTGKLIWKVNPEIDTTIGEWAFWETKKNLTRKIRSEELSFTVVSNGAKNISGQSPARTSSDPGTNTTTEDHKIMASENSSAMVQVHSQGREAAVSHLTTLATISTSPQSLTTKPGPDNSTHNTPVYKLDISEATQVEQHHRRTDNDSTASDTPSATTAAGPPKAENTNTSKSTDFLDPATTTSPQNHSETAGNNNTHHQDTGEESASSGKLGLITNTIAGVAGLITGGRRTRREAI"}},
  "data": [
    {"molecule": "CC(=O)N[C@H]1[C@H](O[C@@H]2C(O)O[C@H](CO)[C@@H](O)[C@@H]2O)O[C@H](CO)[C@@H](O)[C@@H]1O", "note": "(stereo partly drawn) [GlcNAcβ1-2Man]", "values": [
      {"measurement": "Ki", "setting": "[1]", "value": 3500, "unit": "nM"}
    ]},
    {"molecule": "OC[C@H]1O[C@H](OC[C@H]2OC(O)[C@@H](O)[C@@H](O[C@H]3O[C@H](CO)[C@@H](O)[C@H](O)[C@@H]3O)[C@@H]2O)[C@@H](O)[C@@H](O)[C@@H]1O", "note": "(stereo partly drawn) [branched trimannose oligosaccharide]", "values": [
      {"measurement": "KI", "setting": "[2]", "value": "The branched trimannose oligosaccharide, which forms the core of the complex glycans"}
    ]},
    {"molecule": "B1", "values": [
      {"measurement": "Kd", "setting": "[3]", "value": 3.7, "unit": "nM"}
    ]}
  ]
}
